# Assay results published in patent US7977064B2, “Disheveled PDZ modulators” (Genentech, Inc., priority 2006, dated 2011).
# Entries after “also recorded” stand apart in the source; their conditions may differ. No end group written: not given here.
# Experiments:
# Dvl2PDZ [1] = biological target: T1, Dvl2PDZ (Homo sapiens, UniProt O14641); assay: Fluorescence polarization assay, peptides binding to Dvl2PDZ
# T1 construct: protein fragments spanning amino acids 248-364 of the full-length Dvl2 were produced; made in house; host or cells: E. coli (pGEX system)
# T1 sequence (O14641 248-364): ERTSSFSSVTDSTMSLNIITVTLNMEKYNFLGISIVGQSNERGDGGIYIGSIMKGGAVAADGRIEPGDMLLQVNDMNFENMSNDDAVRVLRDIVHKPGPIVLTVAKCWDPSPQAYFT
# Procedure: The binding affinities of synthetic peptides were also measured by Flourescence polarization assay. Serial dilution of purified Dvl2PDZ domain polypeptide (1-10 μM) was incubated with 10 nM probe peptide (FAM-KWYGWL-COOH) (SEQ ID NO: 169) in PBS, 0.1% Triton X100 as 30 μl volume in 96-well black HE96 plates (LJL Biosystem, Inc, Calif.), and incubated for 15 minutes at room temperature. Polarization measurements were performed in Analyst platereader (LJL Biosystems, Inc., Sunnyvale, Calif.). Ks=536 nM was derived from this assay by non-linear regression fitting with KaleidaGraph™. Competition experiments were performed by addition of serial dilution of the free peptides (0-500 μM) to solution with 10 nM probe and 1 μM Dvl2PDZ. The polarization was measured and IC50 values were derived as described above. Ki values were calculated as described previously.
# [2] = tested on: Wnt3a-stimulated β-catenin signaling in HEK293S cells; assay: TOPGLOW luciferase reporter assay in HEK293S cells; assay type: cell-based; conditions: for Effect on Wnt3a-stimulated transcriptional activity (TopGlow): peptide up to 20 μM in medium
# Procedure: HEK293S cells were transfected with the reporter plasmid pTOPGLOW combined with pRL reporter. Cell extract was prepared and the luciferase activity was measured. The relative luciferase unit (RLU) is TopGlow luciferase activity divided by Renila luciferase activity. The fold of activation is the RLU ratio between the Wnt3a-stimulated and non-stimulated cells. Cells were treated with either 10 μM (light bar) or 20 μM (dark bar) peptide ligands.
# (§1) Cell culture, transfection and peptide treatment: HEK293 and H1703 were propagated according to the instructions from American Type Culture Collection. HEK293 cells were transfected with FuGene6 according to the manufacturer's instructions (Roche Molecular Biochemicals) at cell confluence of 50%. H1703 cells were transfected with Lipofectamine according to manufacturer's instruction at cell confluence of 80%. Cells were treated with medium containing peptide (5 μM-40 μM) 24 hours after transfection, and were routinely harvested 24 hours after the peptide treatment for additional assays.
# TOPGLOW assay: Cells were plated in 12-well plates. The TOPGLOW reporter plasmid was transfected transiently into cells as described above. TCF-mediated gene transcription was determined by pTOPGLOW luciferase activity, which was normalized to relative luciferase activities of pRL reporter (cotransfected internal control). All experiments were performed duplicated.
# [3] = tested on: β-catenin protein level in HEK293S cells; assay: Western blot of β-catenin protein level in HEK293S cells; assay type: cell-based; conditions: 20 μM peptide, 24 hours, compared to DMSO and PEN
# Procedure: HEK293S cells were treated with 20 μM DVLp and PEN for 24 hours. Cell lysate was prepared and subjected to SDS-PAGE. β-catenin was blotted by poly-clonal anti-β-catenin (Genentech, Inc., South San Francisco).
# as §1
# Western Blot: Harvested cells were lysed with SIC lysis buffer, the supernatant was subjected to SDS-PAGE, which was transferred, blocked and blotted with proper primary antibody by a standard western blot protocol. Fluorescence labeled secondary antibodies (Alexa goat anti-mouse or anti-rabbit) were added and the results were analyzed by Li-core™.
# Dvl2PDZ [4] = biological target: T1, Dvl2PDZ; assay: Competition ELISA, peptides binding to Dvl2PDZ
# Description: Many methods are known and can be used to identify the binding affinities of binding molecules (e.g. peptides, proteins, small molecules, etc.); for example, binding affinities can be determined as IC50 values using competition ELISAs. The IC50 value is defined as the concentration of binder which blocks 50% of Dvl PDZ domain binding to a ligand. For example, in solid phase assays, assay plates may be prepared by coating microwell plates (preferably treated to efficiently adsorb protein) with neutravidin, avidin or streptavidin. […] After further washing, the binding reactions are detected, often with an antibody recognizing the non-PDZ fusion partner and a labeled (such as horseradish peroxidase (HRP), alkaline phosphatase (AP), or a fluorescent tag such as fluorescein) secondary antibody recognizing the primary antibody. The plates are then developed with the appropriate substrate (depending on the label) and the signal quantified, such as using a spectrophotometric plate reader. […] Thus the ability of the various molecules to inhibit PDZ domain from binding a known PDZ domain binder can be measured.
# Affinity assays—The binding affinities of peptides for Dvl2PDZ were determined as IC50 values using a competition ELISA, as previously described. […]
substance,measurement,setting,value
"Ac-GEIVLWSDIPG-NH2 [Peptide N3, G E I V L W S D I P G]",Affinity lower than that of D1,Dvl2PDZ [1]; ratio of Ki values,6 fold
"Ac-RQTKIWFQNRRMKWKK [PEN, reference compound]",Effect on Wnt3a-stimulated transcriptional activity (TopGlow),[2]; HEK293S cells,did not show an inhibition effect
"Ac-KWYGWL-OH [Peptide D1, K W Y G W L]",Ki,"Dvl2PDZ [1]; competition with 10 nM FAM-KWYGWL-COOH probe, 1 μM Dvl2PDZ, read-out: Ki measured by Flourescence polarization assay",725 nM
Ac-RQTKIVWFQNRRMKKGEIVLWSDIPG [DVLp_N3],Effect on Wnt3a-stimulated transcriptional activity (TopGlow),[2]; HEK293S cells,inhibited Wnt3a-stimulated transcriptional activity significantly; also recorded: blocked the Wnt-stimulated β-catenin signaling
same,Effect on Wnt3a-stimulated transcriptional activity (TopGlow),"[2]; HEK293S cells, listed as Dvlp_N3",significantly blocked the Wnt-stimulated increase in β-catenin signaling
same,Dose dependence of inhibition of Wnt-stimulated β-catenin signaling,"[2]; HEK293S cells, two independent experiments",dose-dependent
same,Inhibition of Wnt3a-stimulated transcriptional activity,"[2]; HEK293 cells, peptide 5-20 μM",up to 80%
same,β-catenin level in whole cell lysate upon Wnt3a stimulation,[3],significantly lower β-catenin levels
same,β-catenin level in whole cell lysate upon Wnt3a stimulation,[3]; listed as Dvlp_N3,reduced the Wnt-stimulated increase in β-catenin protein level
"Ac-KWYGWF [Peptide D2, K W Y G W F]",IC50,Dvl2PDZ [4],930 nM
"Ac-KGFGML-OH [Peptide D5, K G F G M L]",IC50,Dvl2PDZ [4],242000 nM
